# Test results from BindingDB's records for doi:10.1021/jm990041+ (Rhone-Poulenc Rorer, 1999).
# Target: Coagulation factor X (Homo sapiens, UniProt P00742)
# Experiment: Enzyme Assay and Determination of the Inhibition Constants.
# Settings: not given
# Sequence of Coagulation factor X (P00742 41-179 limits assumed): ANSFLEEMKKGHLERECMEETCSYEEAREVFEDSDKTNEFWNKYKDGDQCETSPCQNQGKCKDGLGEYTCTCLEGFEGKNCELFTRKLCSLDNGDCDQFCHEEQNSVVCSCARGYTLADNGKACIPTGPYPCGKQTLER
# Sequence of Coagulation factor X (P00742 235-488 limits assumed): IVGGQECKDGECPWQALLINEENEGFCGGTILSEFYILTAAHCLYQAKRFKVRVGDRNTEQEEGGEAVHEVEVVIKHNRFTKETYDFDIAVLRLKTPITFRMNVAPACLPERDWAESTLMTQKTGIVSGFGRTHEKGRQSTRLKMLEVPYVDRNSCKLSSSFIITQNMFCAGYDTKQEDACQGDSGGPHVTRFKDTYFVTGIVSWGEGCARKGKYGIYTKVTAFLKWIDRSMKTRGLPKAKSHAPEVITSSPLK
row,Ki [nM],Structure (SMILES)
1,> 1000,C[n+]1ccc(-c2ccc(S(=O)(=O)N[C@H]3CCN(Cc4cccc(C(=N)N)c4)C3=O)cc2)cc1 [4-(4-{[(3S)-1-[(3-carbamimidoylphenyl)methyl]-2-oxopyrrolidin-3-yl]sulfamoyl}phenyl)-1-methylpyridin-1-ium]

# Target: T1, Serine protease 1 (Bos taurus, UniProt P00760)
# T1 sequence (P00760 whole entry): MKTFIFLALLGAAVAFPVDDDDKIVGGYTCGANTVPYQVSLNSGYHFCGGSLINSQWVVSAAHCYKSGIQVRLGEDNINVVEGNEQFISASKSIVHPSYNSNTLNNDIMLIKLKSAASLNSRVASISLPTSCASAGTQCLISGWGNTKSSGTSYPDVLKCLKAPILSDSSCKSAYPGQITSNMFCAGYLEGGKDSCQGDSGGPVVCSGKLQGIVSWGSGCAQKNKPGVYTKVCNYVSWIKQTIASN
# Experiment: as above
# Settings: not given
row,Ki [nM],Structure (SMILES)
1,> 2900,N=C(N)c1cccc(CN2CC[C@H](NS(=O)(=O)c3ccc(-c4cccnc4)s3)C2=O)c1 [3-[2-Oxo-3-(S)-(5-pyridin-3-ylthiophene-2-ylsulfonylamino)-pyrrolidin-1-ylmethyl]benzamidine]
2,1900,N=C(N)c1cccc(CN2CC[C@H](NS(=O)(=O)c3ccc(-c4ccon4)s3)C2=O)c1 [3-[3-(S)-(5-Isoxazol-3-ylthiophene-2-ylsulfonylamino)-2-oxopyrrolidin-1-ylmethyl]benzamidine]
3,> 2900,N=C(N)c1cccc(CN2CC[C@H](NS(=O)(=O)c3ccc(-c4cccnc4)cc3)C2=O)c1 [3-{[(3S)-2-oxo-3-{[4-(pyridin-3-yl)benzene]sulfonamido}pyrrolidin-1-yl]methyl}benzene-1-carboximidamide]
4,> 2900,N=C(N)c1cccc(CN2CC[C@H](NS(=O)(=O)c3ccc(-c4ccncc4)cc3)C2=O)c1 [3-{[(3S)-2-oxo-3-{[4-(pyridin-4-yl)benzene]sulfonamido}pyrrolidin-1-yl]methyl}benzene-1-carboximidamide]
5,2100,N=C(N)c1cccc(CN2CC[C@H](NS(=O)(=O)c3ccc(-c4ccccn4)s3)C2=O)c1 [3-{[(3S)-2-oxo-3-{[5-(pyridin-2-yl)thiophene-2-]sulfonamido}pyrrolidin-1-yl]methyl}benzene-1-carboximidamide]
6,> 2900,N=C(N)c1cccc(CN2CC[C@H](NS(=O)(=O)c3ccc(-c4ccncc4)s3)C2=O)c1 [3-{[(3S)-2-oxo-3-{[5-(pyridin-4-yl)thiophene-2-]sulfonamido}pyrrolidin-1-yl]methyl}benzene-1-carboximidamide]
7,> 2900,Cn1ccnc1-c1ccc(S(=O)(=O)N[C@H]2CCN(Cc3cccc(C(=N)N)c3)C2=O)cc1 [3-{[(3S)-3-{[4-(1-methyl-1H-imidazol-2-yl)benzene]sulfonamido}-2-oxopyrrolidin-1-yl]methyl}benzene-1-carboximidamide]
8,> 2900,COc1nccc(-c2ccc(S(=O)(=O)N[C@H]3CCN(Cc4cccc(C(=N)N)c4)C3=O)s2)n1 [3-{[(3S)-3-{[5-(2-methoxypyrimidin-4-yl)thiophene-2-]sulfonamido}-2-oxopyrrolidin-1-yl]methyl}benzene-1-carboximidamide]
9,> 2900,C[n+]1ccc(-c2ccc(S(=O)(=O)N[C@H]3CCN(Cc4cccc(C(=N)N)c4)C3=O)cc2)cc1 [4-(4-{[(3S)-1-[(3-carbamimidoylphenyl)methyl]-2-oxopyrrolidin-3-yl]sulfamoyl}phenyl)-1-methylpyridin-1-ium]
10,> 2900,N=C(N)c1cccc(CN2CC[C@H](NS(=O)(=O)c3ccc(-c4cc[n+]([O-])cc4)cc3)C2=O)c1 [4-(4-{[(3S)-1-[(3-carbamimidoylphenyl)methyl]-2-oxopyrrolidin-3-yl]sulfamoyl}phenyl)-1-oxidopyridin-1-ium]
11,1700,N=C(N)c1ccc(N)c(CN2CC[C@H](NS(=O)(=O)c3ccc(-c4ccon4)s3)C2=O)c1 [4-Amino-3-[3-(S)-(5-isoxazol-3-ylthiophene-2-ylsulfonylamino)-2-oxopyrrolidin-1-ylmethyl]benzamidine]
12,1500,N=C(N)c1ccc(N)c(CN2CC[C@H](NS(=O)(=O)c3ccc(-c4cccnc4)s3)C2=O)c1 [4-amino-3-{[(3S)-2-oxo-3-{[5-(pyridin-3-yl)thiophene-2-]sulfonamido}pyrrolidin-1-yl]methyl}benzene-1-carboximidamide]
13,> 2900,N=C(N)c1ccc(F)c(CN2CC[C@H](NS(=O)(=O)c3ccc(-c4cccnc4)s3)C2=O)c1 [4-fluoro-3-[((3S)-2-oxo-3-{[(5-pyridin-3-ylthien-2-yl)sulfonyl]amino}pyrrolidin-1-yl)methyl]benzenecarboximidamide]
14,2900,"N=C(N)c1ccc(O)c(CN2CC[C@H](NS(=O)(=O)c3ccc(-c4ccon4)s3)C2=O)c1 [4-hydroxy-3-{[(3S)-3-{[5-(1,2-oxazol-3-yl)thiophene-2-]sulfonamido}-2-oxopyrrolidin-1-yl]methyl}benzene-1-carboximidamide]"

# Same assay, conditions: pH 7.5; 22 °C
row,Ki [nM],Structure (SMILES)
1,> 2900,COc1ccc2ccc(S(=O)(=O)N[C@H]3CCN(Cc4cc(C(=N)N)ccc4OCC(=O)O)C3=O)cc2c1 [2-(4-carbamimidoyl-2-{[(3S)-3-[(7-methoxynaphthalene-2-)sulfonamido]-2-oxopyrrolidin-1-yl]methyl}phenoxy)acetic acid]
2,> 2900,COc1ccc2ccc(S(=O)(=O)N[C@H]3CCN(Cc4ccc(O)c(C(=N)N)c4)C3=O)cc2c1 [2-hydroxy-5-{[(3S)-3-[(7-methoxynaphthalene-2-)sulfonamido]-2-oxopyrrolidin-1-yl]methyl}benzene-1-carboximidamide]
3,> 2900,COc1ccc2ccc(S(=O)(=O)N[C@H]3CCN(Cc4cc(N)cc(C(=N)N)c4)C3=O)cc2c1 [3-Amino-5-[3-(S)-(7-methoxynaphthalen-2-ylsulfonylamino)-2-oxopyrrolidin-1-ylmethyl]benzamidine]
4,> 2900,N=C(N)c1cccc(CN2CC[C@H](NS(=O)(=O)c3ccc(-c4ccccc4)cc3)C2=O)c1 [3-{[(3S)-2-oxo-3-[(4-phenylbenzene)sulfonamido]pyrrolidin-1-yl]methyl}benzene-1-carboximidamide]
5,> 2900,N=C(N)c1cccc(CN2CC[C@H](NS(=O)(=O)c3ccc(-c4ccccn4)cc3)C2=O)c1 [3-{[(3S)-2-oxo-3-{[4-(pyridin-2-yl)benzene]sulfonamido}pyrrolidin-1-yl]methyl}benzene-1-carboximidamide]
6,704,COc1ccc2ccc(S(=O)(=O)N(C)[C@H]3CCN(Cc4cccc(C(=N)N)c4)C3=O)cc2c1 [3-{[(3S)-3-[(7-methoxynaphthalene-2-)(methyl)sulfonamido]-2-oxopyrrolidin-1-yl]methyl}benzene-1-carboximidamide]
7,853,COc1ccc2ccc(S(=O)(=O)N[C@H]3CCN(Cc4cccc(C(=N)N)c4)C3=O)cc2c1 [3-{[(3S)-3-[(7-methoxynaphthalene-2-)sulfonamido]-2-oxopyrrolidin-1-yl]methyl}benzene-1-carboximidamide]
8,189,COc1ccc2ccc(S(=O)(=O)N(C)[C@H]3CCN(Cc4cc(C(=N)N)ccc4N)C3=O)cc2c1 [4-amino-3-{[(3S)-3-[(7-methoxynaphthalene-2-)(methyl)sulfonamido]-2-oxopyrrolidin-1-yl]methyl}benzene-1-carboximidamide]
9,299,COc1ccc2ccc(S(=O)(=O)N[C@H]3CCN(Cc4cc(C(=N)N)ccc4N)C3=O)cc2c1 [4-amino-3-{[(3S)-3-[(7-methoxynaphthalene-2-)sulfonamido]-2-oxopyrrolidin-1-yl]methyl}benzene-1-carboximidamide]
10,305,COc1ccc2ccc(S(=O)(=O)N[C@H]3CCN(Cc4cc(C(=N)N)ccc4O)C3=O)cc2c1 [4-hydroxy-3-{[(3S)-3-[(7-methoxynaphthalene-2-)sulfonamido]-2-oxopyrrolidin-1-yl]methyl}benzene-1-carboximidamide]
11,> 2900,COc1ccc2ccc(S(=O)(=O)N(C)[C@H]3CCN(Cc4cc(C(=N)N)ccc4NC(C)=O)C3=O)cc2c1 [N-(4-carbamimidoyl-2-{[(3S)-3-[(7-methoxynaphthalene-2-)(methyl)sulfonamido]-2-oxopyrrolidin-1-yl]methyl}phenyl)acetamide]
12,12,COC(=O)COc1ccc(C(=N)N)cc1CN1CC[C@H](NS(=O)(=O)c2ccc3ccc(OC)cc3c2)C1=O [methyl 2-(4-carbamimidoyl-2-{[(3S)-3-[(7-methoxynaphthalene-2-)sulfonamido]-2-oxopyrrolidin-1-yl]methyl}phenoxy)acetate]
